Data published in patent publication US7314858B2, “Retrocyclins: antiviral and antimicrobial peptides” (priority 2001, dated 2008).
Entries after “also recorded” stand apart in the source; their conditions may differ. Where a SMILES comes first, the peptide text is derived from it. Bridges are numbered along the chain shown (N, C = ends).

How the values were obtained:
[1] = system: HSV-1; assay: HSV inactivation microplate assay on ME-180 cells (MTT); type: cell-based, herpes simplex virus, type 1; settings: 2-50 μg/ml, 2 hrs with virus, 72 hrs culture
Protocol: FIG. 14. Inactivation of HSV-1 and HSV-2 by retrocyclin and RC-101. Retrocyclin (left panel) and RC-101 (right panel) at the indicated concentrations were incubated with herpes simplex virus, type 1 (HSV-1) or HSV-2 for 2 hrs and then added to ME-180 cell monolayers. Cells were incubated at 37° C. for 72 hrs, and cytotoxicity was measured with an MTT kit.
Some retrocyclins are slightly active against herpes simplex virus (HSV). To determine if the activity of retrocyclin against HIV-1 was specific or representative of a more global antiviral effect, it was tested its ability to prevent HSV infection in vitro. A quantitative microplate assay was used to screen retrocyclin and retrocyclin-congeners for their ability to inactivate HSV type 1 (HSV-1) and HSV-2. The assay utilized small amounts of peptide and simultaneously evaluated for peptide-induced cytotoxicity. In brief, final peptide concentrations of 2-50 μg/ml were incubated with virus stocks for 2 hrs and added directly to ME-180 human cervical carcinoma cells. Cultures were incubated at 37° C. for 72 hrs and cytotoxicity was measured using a 3-(4,5-dimethylthiazon-2-yl)-2,5-diphenyltetrazolium bromide (MTT) cell proliferation kit (Boehringer-Mannheim, Germany). Calculations to assess antiviral activity and compute “percent protection” are delineated in (90).

[2] = molecular target: gp120 (BaL); assay: Surface plasmon resonance binding; design: species or system HIV-1; settings: immobilized gp120(BaL)
Excerpt: (§1) Surface plasmon resonance. Recombinant human soluble CD4 (full-length 45 kDa glycosylated ectodomain) was produced by ExpresSF+S. frugiperda cells in serum-free medium (Protein Sciences Corporation, Meriden, Conn.). Glycosylated HIV-1 gp120 (LAV) envelope glycoprotein (Catalog No. 2003-LAV) was purchased from the same source. Recombinant HIV-1BaL was obtained through the AIDS Research and Reference Reagent Program, Division of AIDS, National Institute of Allergy and Infectious Disease, NIH.
(§2) Surface plasmon resonance (SPR) experiments were done with a Biacore 2000 system (Biacore, Inc., Piscataway, N.J.). The running buffer (pH 7.4) contained 10 mM HEPES, 150 mM NaCl, 3 mM EDTA and 0.005% polysorbate 20. The immobilized proteins (gp120-LAV and CD4) were dissolved at 20 μg/ml in 10 mM sodium acetate, pH 5.0 and immobilized on a Biacore CM5 sensor chip using the amine coupling method. The chip was activated by mixing 400 mM EDC (N-ethyl-N-(3-dimethylaminopropyl)-carbodiimide hydrochloride) and 100 mM N-hydroxysuccinimide. […] Residual reactive groups on the chip surface were blocked using 1.0 Methanolamine/HCl, pH 8.5.
(§3) The flow cell chip used as a control lacked immobilized protein but was otherwise treated as above. Signals were corrected for nonspecific binding by subtracting the control signal. To regenerate the chip surface, bound ligands were removed with 10 mM HCl. Data were analyzed with BIAevaluation 3.1 software. Curve fitting was done with an assumption of 1:1 binding.
(§4) In those experiments, biosensor chips containing immobilized gp120 or CD4 were perfused with a 1 μg/ml solution of the peptides, and binding was measured by surface plasmon resonance. […] No binding studies were performed with gp120 preparations derived from non-B HIV-1 subtypes.

[3] = molecular target: T1, CD4 (Homo sapiens, UniProt P01730); assay: Surface plasmon resonance binding; settings: immobilized CD4
T1 construct: Recombinant human soluble CD4 (full-length 45 kDa glycosylated ectodomain); purchased Protein Sciences Corporation, Meriden, Conn; host or cells: ExpresSF+ S. frugiperda cells
Excerpt: as §1, §2, §3, §4

[4] = system: human red blood cells; assay: Hemagglutination of washed red blood cells in PBS; settings: washed human red blood cells in PBS
Protocol: Hemagglutination was tested by adding the stated concentration of peptide to a well comprising red blood cells (shown in FIG. 22). When the RBC are agglutinated, they clump together and settle rapidly and form a diffuse circle covering much of the bottom of the well. In the absence of agglutination, they settle more slowly and form a compact red button in the center of the well.
Sequences of retrocyclin-related peptides that were synthesized and either tested for activity against HIV-1 (see FIGS. 21A and 21B) and/or for their ability to cause human red blood cells to hemagglutinate or both. NT signifies not tested. Linear sequences appear in the table, but all peptides were cyclic and contained three intramolecular disulfide bonds. Hemagglutination of washed human red blood cells was tested in PBS, at peptide concentrations of 50, 25, 12.5 6.25 and 3.12 μg/ml. The lowest concentrations that caused hemagglutination are shown. Peptide concentrations were determined by amino acid analysis or by AUC (area under the curve) RP-HPLC analysis with reference to amino-acid analyzed standards.

[5] = system: H9 cells; assay: Cytotoxicity by trypan blue exclusion; settings: for cytotoxicity (trypan blue exclusion): 20 μg/ml, HIV-1-infected H9 cells

CC[C@H](C)[C@@H]1NC(=O)CNC(=O)[C@H](CCCNC(=N)N)NC(=O)CNC(=O)[C@@H]2CSSC[C@H](NC1=O)C(=O)N[C@@H](CCCNC(=N)N)C(=O)N[C@H]1CSSC[C@H](NC(=O)[C@H](CCCNC(=N)N)NC(=O)[C@@H]3CSSC[C@H](NC(=O)[C@H]([C@@H](C)CC)NC1=O)C(=O)NCC(=O)N[C@@H](CCCNC(=N)N)C(=O)NCC(=O)N[C@@H]([C@@H](C)CC)C(=O)N3)C(=O)N[C@@H]([C@@H](C)CC)C(=O)N2 [RC-100, Retrocyclin] (cyclo(GICRCICGRGICRCICGR); disulfide 3-16, 5-14, 7-12)
protection against HSV-1 [1]: not HSV-1
Kd [2]: 29.2 nM
koff [2]: 4.12 × 10^−3
kon [2]: 14.1 × 10^4
koff [3]: 0.0022 s⁻¹
kon [3]: 67700 M⁻¹ s⁻¹
Hemagglutination seen at a concentration of (lowest concentration that caused hemagglutination) [4]: 6 to 12.5 µg/mL
average number of cells ([5]; 20 μg/ml peptide, H9, IIIB): 1.2e+06 mL⁻¹
cytotoxicity (trypan blue exclusion) [5]: neither 20 μg/ml retrocyclin nor RC-101 were cytotoxic

CC[C@H](C)[C@@H]1NC(=O)CNC(=O)[C@H](CCCCN)NC(=O)CNC(=O)[C@@H]2CSSC[C@H](NC1=O)C(=O)N[C@@H](CCCNC(=N)N)C(=O)N[C@H]1CSSC[C@H](NC(=O)[C@H](CCCNC(=N)N)NC(=O)[C@@H]3CSSC[C@H](NC(=O)[C@H]([C@@H](C)CC)NC1=O)C(=O)NCC(=O)N[C@@H](CCCNC(=N)N)C(=O)NCC(=O)N[C@@H]([C@@H](C)CC)C(=O)N3)C(=O)N[C@@H]([C@@H](C)CC)C(=O)N2 [RC-101, R9K-Retrocyclin]
protection against HSV-1 [1]: modestly protective
Kd [2]: 20.5 nM
koff [2]: 5.55 × 10^−3
kon [2]: 27.0 × 10^4
koff [3]: 0.00226 s⁻¹
kon [3]: 79000 M⁻¹ s⁻¹
Hemagglutination seen at a concentration of (lowest concentration that caused hemagglutination) [4]: > 200 µg/mL
hemagglutination compared with retrocyclin [4]: much less hemagglutination than retrocyclin; also recorded: less hemagglutination than retrocyclin-1 or retrocyclin-2
cytotoxicity (trypan blue exclusion) [5]: neither 20 μg/ml retrocyclin nor RC-101 were cytotoxic
